Tests used:
PTBR = PTBR (Homo sapiens, UniProt P30536); settings: cited from earlier work
human atrial strips = settings: cited from earlier work
[1] = test system: isolated perfused Langendorf rat heart; settings: cited from earlier work
[2] = test system: isolated working rat heart; settings: cited from earlier work
[3] = test system: neonatal rat cardiomyocytes; test: Protein synthesis ([3H]phenylalanine incorporation) in neonatal rat cardiomyocytes; type: cell-based
From the text: Neonatal rat ventricular cardiomyocytes were isolated from one or two days old rat pups using the following reagents and isolation procedure:
When cardiomyocytes undergo hypertrophy several biochemical parameters can be monitored. There is an increase in protein synthesis and atrial natriuretic peptide (ANP) synthesis and an upregulation of the β-myosin heavy chain gene. These three parameters were used to assess the effects of ligands of the peripheral-type benzodiazepine receptor (PTBR) upon neonatal rat cardiomyocytes.
Protein synthesis is assessed by including radiolabelled amino acids in the experimental incubation medias (i.e., [^3H]phenylalanine) at the end of the incubation the cell monolayer is washed with phosphate bufered saline, fized with 10% TCA and lysed with 0.25N NaOH. The total cell lysate is then assessed for tritium contant by scintillation spectrometry.
a. Neonatal rat cardiomyocytes were cultured in 24-well plates for 24 hours in serum-free medium. Medium was then removed and replaced with experimental culture medium containing [^3H]phenylalanine (10 μCi/ml) and either the PTBR agonist Ro5-4864 (RBI, MA, USA) in a concentration range of 10^−12-10^−8 M, or the PTBR antagonist PK11195 (RBI, MA, US) in a concentration range of 10^−12-10^−8 M. Control incubations received [^3H]phenylalanine (10 μCi/ml) containing medium alone. Cell cultures were returned to the incubator for a further 48 hour incubation after which time the cell culture supernatants were harvested for ANP analysis and the cell monolayers were prepared for assessment of tritium incorporation. […] However, at concentrations greater than or equal to 10^−11 M, the PTBR agonist Ro5-4864 caused a three-fold increase in protein synthesis and a five-fold increase in ANP synthesis. Data are expressed as the mean+/−standard deviations of quadruplet samples.
b. Neonatal rat cardiomyocytes were cultured in 24-well plates for 24 hours in serum-free medium. Medium was then removed and replaced with experimental culture medium containing [^3H]phenylalanine (10 μCi/ml) and either the PTBR agonist Ro5-4864 (RBI, MA, USA) in a concentration range of 10^−12-10^−8 M, or the PTBR antagonist PK11195 (RBI, MA, US) at a concentration of 10^−10 M. Control incubations received [^3H]phenylalanine (10 μCi/ml) containing medium alone. Cell cultures were returned to the incubator for a further 48 hour incubation after which time the cell culture supernatants were harvested for ANP analysis and the cell monolayers were prepared for assessment of tritium incorporation. […] Data are expressed as the mean+/−standard deviations of quadruplet samples.

[4] = test system: isolated rat heart preparation; settings: cited from earlier work
[5] = test system: neonatal rat cardiomyocytes; test: Hypertrophic response of neonatal rat cardiomyocytes (conclusions over all readouts); type: cell-based
[6] = test system: neonatal rat cardiomyocytes; test: ANP synthesis (competition binding ELISA of culture supernatants) in neonatal rat cardiomyocytes; type: cell-based
[7] = test system: guinea pig heart preparation; settings: cited from earlier work
β-MHC promoter = test: β-MHC promoter-luciferase reporter in neonatal rat cardiomyocytes; type: cell-based; settings: greater than or equal to 10^-11 M; 24 hours; normalized to SEAP; FIG. 9
Protocol: To monitor the expression of β-MHC, β-MHC promoter-luciferase reporter plasmid was constructed. This plasmid is inserted into the cardiomyocyte cultures by liposome mediated transfection and luciferase activity in cell lysates determined following incubation. The amount of luciferase actvity is directly proportional to the level of transcription of the β-MHC gene.
c. Neonatal cardiomyocytes were cultures in 6-well plates overnight following isolation. The cell monolayers were then transfected with a β-MHC promoter-luciferase reported plasmid and a control plasmid to aid data normalization (pSEAP2 Clontech Corp) using lipofectamine liposome mediated plasmid delivery. Following recovery from the transfection, the cell cultures were treated for 24 hours in the presence and absence of the PTBR agonist Ro5-4864 at 10^−12 M, 10^−11 M and 10^−10 M. The culture supernatants were then harvested for SEAP activity and cell lysates prepared for luciferase assay. […] Data are expressed as the mean+/−standard derivations of triplicate samples.

[8] = test system: neonatal rat cardiomyocytes; test: Morphology of neonatal rat cardiomyocyte cultures (photography); type: cell-based; settings: 10^-10 M, serum-free
Protocol: When cardiomyocytes undergo hypertrophy, their morphology changes quite drastically. The cells become larger and more spread out so another technique employed to monitor hypertrophic effects on cardiomyocytes is to assess their morphology and document that by photography.
d. Neonatal rat cardiomyocytes were cultures in 6-well plates overnight following isolation. […] FIGS. 10B and 10C show the same cultures following 96 hours of culture and the differenes between control and treated are quite striking.

[9] = following intravenous administration; cited from earlier work
[10] = dogs; cited from earlier work
[11] = test system: isolated cardiac and smooth muscle; settings: cited from earlier work
[12] = test system: [3H]diazepam binding to heart tissue; settings: cited from earlier work
Chain of [3H]diazepam binding to heart tissue (P30536 2-169 limits assumed): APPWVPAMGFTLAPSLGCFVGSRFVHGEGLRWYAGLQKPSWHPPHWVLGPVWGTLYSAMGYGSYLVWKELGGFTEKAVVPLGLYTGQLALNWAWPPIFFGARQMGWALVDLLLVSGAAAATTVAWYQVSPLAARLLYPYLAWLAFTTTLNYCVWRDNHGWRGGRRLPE

[13] = isolated perfused Langendorf rat heart
[14] = 10^-11 M PK11195 (so in the source), Ro5-4864 10^-12-10^-10 M, 48 hour, FIG. 8
[15] = compound alone, 10^-12-10^-8 M, 48 hour incubation, FIG. 7
[16] = Ro5-4864 at higher concentrations (10^-11-10^-8 M) with 10^-10 M PK11195, FIG. 8
[17] = concentrations greater than or equal to 10^-11 M, 48 hour incubation, vs control, FIG. 7

Chain of PTBR (P30536 whole entry): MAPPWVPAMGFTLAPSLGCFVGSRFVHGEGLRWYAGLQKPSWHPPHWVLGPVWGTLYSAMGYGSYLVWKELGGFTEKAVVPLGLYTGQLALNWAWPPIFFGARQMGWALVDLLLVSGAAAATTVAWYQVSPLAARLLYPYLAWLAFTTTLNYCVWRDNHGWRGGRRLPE

## trikontetraneuropeptide: shorter fragment of DBI (fragment 17-50) (KTKPSDEEMLFIYGHYKQATVGDINTERPGMLDF; Triakontatetraneuropeptide; UniProt P07108 17-50, looked up, fragment)
PTBR
  selectivity for PTBR relative to DBI: more selective for PTBR

## CCC(C)N(C)C(=O)c1cc2ccccc2c(-c2ccccc2Cl)n1 (centres unmarked) [PK11195, 1-(2-chlorophenyl)-N-methyl-N-(1-methylpropyl)-3-isoquinoline carboxamide]
Human atrial strips
  antagonism of the depressant effect of Ro5-4864: not antagonized
[1]; [13]
  antagonism of the vasodilatory effect of Ro5-4864: did not antagonize
[2]
  effect on cardiac function: depress cardiac function
[3]; [14]
  effect on the Ro5-4864 induced increase in protein synthesis: prevented
[3]; [15]
  effect on protein synthesis (incorporation of radiolabelled phenylalanine): no effects
[4]
  antagonism of the positive inotropy induced by diazepam: antagonized
[5]; coincubation of Ro5-4864 with PK11195
  reversal of the Ro5-4864 hypertrophic effect: can be reversed
[6]; [14]
  effect on the Ro5-4864 induced increase in ANP synthesis: prevented
[6]; [15]
  effect on ANP synthesis: no effects
[7]
  reversal of the effects of Ro5-4864: reversed

## CN1C(=O)CN=C(c2ccc(Cl)cc2)c2cc(Cl)ccc21 [Ro5-4864]
Human atrial strips
  depressant effect on the contraction amplitude (negative inotropic effect): 20%
β-MHC promoter
  increase in luciferase activity (transcriptional activity from the β-MHC promoter): three-fold
[1]; [13]
  coronary flow: increase coronary flow
  heart rate and left ventricular contractility: without affecting
[2]
  effect on cardiac function: depress cardiac function
[3]; [16]
  agonist induced increase in protein synthesis in the presence of PK11195: able to overcome the inhibitory effect of PK11195
[3]; [17]
  increase in protein synthesis (incorporation of radiolabelled phenylalanine): three-fold
[5]; summary of Example 2
  hypertrophic response: increase in protein synthesis, ANP synthesis, transcription of the β-MHC gene reporter: three- to five-fold
[8]; 24 hours of culture, FIG. 10A
  cell size / morphology of cardiomyocytes: larger cell size
[8]; 96 hours of culture, FIGS. 10B and 10C
  cell size / morphology of cardiomyocytes: much larger and adherent to the extracellular matrix
[6]; [16]
  agonist induced increase in ANP synthesis in the presence of PK11195: able to overcome the inhibitory effect of PK11195
[6]; [17]
  increase in ANP synthesis: five-fold
[7]
  duration of intracellular action potential and contractility: decreased

## CN1C(=O)CN=C(c2ccccc2)c2cc(Cl)ccc21 [diazepam]
[9]
  vagal tone: decrease
[1]; Langendorf rat heart
  contractile force: increased contractile force
[10]
  potentiation of the coronary vasodilator action of adenosine: potentiates
[4]
  inotropic effect: transient negative inotropic effect followed by a positive inotropic response
[7]
  duration of intracellular action potential and contractility: less effective
[11]
  potentiation of the actions of adenosine: potentiates

## OCCN(CCO)c1nc(N2CCCCC2)c2nc(N(CCO)CCO)nc(N3CCCCC3)c2n1 [dipyridamole]
[12]
  competition of [3H]diazepam binding: can compete

## O=C1CN=C(c2ccccc2Cl)c2cc([N+](=O)[O-])ccc2N1 [clonazepam]
[7]
  duration of intracellular action potential and contractility: ineffective

Source: US6686354B2, “Agonists and antagonists of peripheral-type benzodiazepine receptors” (Scios, Inc., priority 1998, dated 2004)
